In patent publication US5098923A, “Aromatase inhibiting 4(5)-imidazoles” (Farmos-Yhtyma Oy, priority 1987, dated 1992):
Where two headings read alike, the source gives them in different places.

How the values were obtained:
α2 = conditions: described in EP-194984; cited from earlier work
human aromatase = molecular target: T1, human aromatase (Homo sapiens, UniProt P11511); experiment: In vitro inhibition of human placental aromatase (3H2O release from 1,2[3H]-androstene-3,17-dione); assay type: biochemical; conditions: for IC10: 40 min, read-out: AROMATASE IC-10; for IC90: read-out: AROMATASE IC-90
T1 construct: The enzyme preparation was used without further purification; from tissue; host or cells: human placenta, microsomal fraction (100000×g precipitate)
T1 sequence (P11511 1-503): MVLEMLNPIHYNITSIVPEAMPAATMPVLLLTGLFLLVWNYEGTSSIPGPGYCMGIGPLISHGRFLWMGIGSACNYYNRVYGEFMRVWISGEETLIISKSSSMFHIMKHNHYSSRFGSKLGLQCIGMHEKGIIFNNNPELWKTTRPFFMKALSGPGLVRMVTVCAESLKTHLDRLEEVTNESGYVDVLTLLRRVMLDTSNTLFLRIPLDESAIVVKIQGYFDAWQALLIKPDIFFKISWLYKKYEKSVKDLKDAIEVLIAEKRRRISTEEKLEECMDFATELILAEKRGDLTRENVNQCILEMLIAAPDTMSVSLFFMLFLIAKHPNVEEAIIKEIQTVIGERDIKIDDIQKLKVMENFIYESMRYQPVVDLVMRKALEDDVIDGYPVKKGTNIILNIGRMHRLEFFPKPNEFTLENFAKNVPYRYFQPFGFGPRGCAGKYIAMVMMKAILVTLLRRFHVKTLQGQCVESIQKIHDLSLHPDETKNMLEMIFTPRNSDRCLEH
Method: Human aromatase enzyme was used. The enzyme was prepared from human placenta, which is rich in the enzyme. Microsomal fraction (100000×g precipitate) was prepared by centrifugation. The enzyme preparation was used without further purification. Test compounds listed in Table 1 were added with 100000 dpm of 1,2[^3 H]-androstene-3,17-dione and NADPH generating system. The concentrations of the test compounds were 0,001; 0,01; 0,1 and 1,0 mM. The incubation was carried out at 37° C. for 40 min. Aromatization of 1,2[^3 H]-androstene-3,17-dione results in the production of ^3 H2 O. The tritiated water and the tritiated substrate are easily separated by a Sep-Pak® minicolumn, which absorbs the steroid but allows free water elution. Radioactivity was counted by a liquid scintillation counter. Aromatase inhibition was evaluated by comparing the ^3 H2 O-radioactivity of inhibitor treated samples to controls containing no inhibitor. IC-10, IC-50 and IC-90 values were calculated as concentrations which inhibited the enzyme activity 10%, 50% and 90%, respectively.

desmolase = experiment: Cholesterol side-chain cleavage (desmolase, P450 scc) inhibition; conditions: read-out: DESMOLASE IC-50; Table 2; 30 min at 37° C.; human placenta or bovine adrenals as enzyme source, table title says human

| IC10 (human aromatase) [µM] | IC50 (human aromatase; read-out: AROMATASE IC-50) [µM] | IC90 (human aromatase) [µM] | SMILES | also measured |
| --- | --- | --- | --- | --- |
|  |  |  | c1ccc(C(Cc2c[nH]cn2)c2ccccc2)cc1 [4-(2,2-diphenylethyl)-1H-imidazole] | α2-blocking properties (α2): selective α2 -blocking properties |
| 20 | 1000 | > 1000 | Cc1cccc(C)c1CCC(O)(CCc1c[nH]cn1)CCc1c(C)cccc1C [Compound 1, 4-[5-(2,6-dimethylphenyl)-3-hydroxy-3-(2,6-dimethylphenylethyl)pentyl]-1H-imidazole] |  |
| 4 | 60 | 1000 | OC(CCc1c[nH]cn1)(c1ccc(Cl)cc1)c1ccc(Cl)cc1 [Compound 2, 4-[3,3-bis(4-chlorophenyl)-3-hydroxypropyl]-1H-imidazole] |  |
| 4 | 70 | 1000 | OC(CCc1c[nH]cn1)(c1ccccc1)c1ccccc1 [Compound 3, 4-(3,3-diphenyl-3-hydroxypropyl)-1H-imidazole] |  |
| < 1 |  | 100 | C(Cc1c[nH]cn1)=C(c1ccccc1)c1ccccc1 [Compound 4] | IC50 (human aromatase): 6 µM |
| 15 |  | > 1000 | Cc1ccccc1C(O)(CCc1c[nH]cn1)c1ccccc1C [Compound 6, 4-[3,3-bis(2-methylphenyl)-3-hydroxpropyl]-1H-imidazole] | IC50 (human aromatase): 300 µM |
| 2 |  | 600 | Clc1ccc(C(=CCc2c[nH]cn2)c2ccc(Cl)cc2)cc1 [Compound 7] | IC50 (human aromatase): 35 µM |
| 1.5 |  | > 1000 | Cc1ccccc1C(=CCc1c[nH]cn1)c1ccccc1C [Compound 8] | IC50 (human aromatase): 80 µM |
| ~0.6 | 4 | 100 | c1ccc(Cn2cncc2CCC(c2ccccc2)c2ccccc2)cc1 [Compound 10, 1-benzyl-5-(3,3-diphenylpropyl)-1H-imidazole] |  |
|  |  |  | Cc1cccc(C(CCc2c[nH]cn2)c2cccc(C)c2)c1 [Compound 11, 4-[3,3-bis(3-methylphenyl)propyl]-1H-imidazole] | IC50 (desmolase): 29 µM |
| 1 |  | 1000 | Cc1cccc(C(=CCc2c[nH]cn2)c2cccc(C)c2)c1 [Compound 12] | IC50 (human aromatase): 62 µM |
|  | 3 |  | COc1cccc(C(CCc2c[nH]cn2)c2cccc(OC)c2)c1 [Compound 13, 4-[3,3-bis(3-methoxyphenyl)propyl]-1H-imidazole] |  |
|  | 44 |  | Cc1cccc(C(CCc2c[nH]cn2)c2cccc(C)c2C)c1C [Compound 14, 4-[3,3-bis(2,3-dimethylphenyl)propyl]-1H-imidazole] |  |
|  | 4 |  | COc1cccc(C(CCc2cncn2Cc2ccccc2)c2cccc(OC)c2)c1 [Compound 15, 1-benzyl-5-[3,3-bis(3-methoxyphenyl)propyl]-1H-imidazole] |  |
|  |  |  | COc1cccc(C(=CCc2cncn2Cc2ccccc2)c2cccc(OC)c2)c1 [Compound 16] | IC50 (human aromatase): 14 µM |
|  | 130 |  | Cc1cc(C)cc(C(CCc2c[nH]cn2)c2cc(C)cc(C)c2)c1 [Compound 17, 4-[3,3-bis(3,5-dimethylphenyl)propyl]-1H-imidazole] |  |
|  |  |  | Cc1ccc(C(CCc2c[nH]cn2)c2ccc(C)cc2)cc1 [Compound 18, 4-[3,3-bis(4-methylphenyl)propyl]-1H-imidazole] | IC50 (desmolase): 48 µM |
|  |  |  | Fc1cccc(C(CCc2c[nH]cn2)c2cccc(F)c2)c1 [Compound 19, 4-[3,3-bis(3-fluorophenyl)propyl]-1H-imidazole] | IC50 (desmolase): 20 µM |
|  |  |  | C(Cc1cncn1Cc1ccccc1)=C(c1ccccc1)c1ccccc1 [Compound 20] | IC50 (human aromatase): 50 µM |
|  | 17 |  | c1ccc(CCC(CCc2cncn2Cc2ccccc2)c2ccccc2)cc1 (centres unmarked) [Compound 21, 1-benzyl-5-(3,5-diphenylpentyl)-1H-imidazole] |  |
|  |  |  | COc1ccc(C(CCc2c[nH]cn2)c2ccc(OC)cc2)cc1 [Compound 22, 4-[3,3-bis(4-methoxyphenyl)propyl]-1H-imidazole] | IC50 (desmolase): 26 µM |
|  |  |  | Cc1ccc(C(CCc2c[nH]cn2)c2ccccc2)cc1 (centres unmarked) [Compound 24, 4-[3-(4-methylphenyl)-3-phenylpropyl]-1H-imidazole] | IC50 (desmolase): 50 µM |
|  | 8.6 |  | COc1ccccc1C(CCc1c[nH]cn1)c1ccccc1OC [Compound 25, 4-[3,3-bis(2-methoxyphenyl)propyl]-1H-imidazole] |  |
|  |  |  | Fc1ccc(C(CCc2c[nH]cn2)c2ccccc2)cc1 (centres unmarked) [Compound 26, 4-[3-(4-fluorophenyl)-3-phenylpropyl]-1H-imidazole] | IC50 (desmolase): 440 µM |
|  |  |  | Fc1ccc(C(CCc2c[nH]cn2)c2ccc(F)cc2)cc1 [Compound 27, 4-[3,3-bis(4-fluorophenyl)propyl]-1H-imidazole] | IC50 (desmolase): 30 µM |
|  | 14 |  | C(=CC(c1ccccc1)c1ccccc1)c1cncn1Cc1ccccc1 [Compound 28, 1-benzyl-5-(3,3-diphenylpropen-1-yl)-1H-imidazole] |  |
